These are literature values, as cited in patent US20070098469A1, “Fixing apparatus for nonheat fixing system, and image forming apparatus having fixing apparatus” (priority 2005, published 2007).

As usually defined, the LD50 is the dose at which mortality reaches 50%.

The conditions of the series: in vivo.
Consider `CCCCOC(=O)CCCCCCCCC(=O)OCCCC` [Di-n-butyle sebacate], for which the 50% lethal dose (LD50) was 14900 mg/kg.
`CCOCCOC(=O)CCC(=O)OCCOCC` [Diethoxyethyl succinate]: the LD50 is 5000 mg/kg.
On to `CC(C)COC(=O)CCCCC(=O)OCC(C)C` [Diisobutyl adipate], for which the 50% lethal dose (LD50) was 12300 mg/kg.
As to `CCO` [Ethanol], the 50% lethal dose (LD50) was 20000 mg/kg.
